From PMC4140855, “Production of an Attenuated Phenol-Soluble Modulin Variant Unique to the MRSA Clonal Complex 30 Increases Severity of Bloodstream Infection” (PLoS Pathogens, 2014) come the findings set out here.

Common to all, as to format: cell-based
For assay [1], the target named is T1, FPR2 (Homo sapiens, UniProt P25090).
T1 construct: expressed in transfected cells; host or cells: HL60 cells, stably transfected
T1 sequence (P25090 1-351): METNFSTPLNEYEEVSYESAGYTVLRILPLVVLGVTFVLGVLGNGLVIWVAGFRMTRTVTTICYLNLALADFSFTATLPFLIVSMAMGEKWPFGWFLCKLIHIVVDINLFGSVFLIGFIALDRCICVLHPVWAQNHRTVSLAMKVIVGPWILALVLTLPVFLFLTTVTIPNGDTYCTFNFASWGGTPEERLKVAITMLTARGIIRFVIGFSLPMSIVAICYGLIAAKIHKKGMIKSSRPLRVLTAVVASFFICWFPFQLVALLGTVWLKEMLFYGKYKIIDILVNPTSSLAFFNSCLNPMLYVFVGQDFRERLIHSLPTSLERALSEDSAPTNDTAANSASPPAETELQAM
In words: Ca2+ flux in HL60 cells stably transfected with FPR2. The conditions noted are these: for Activation of FPR2 relative to FPR1 and FPR3: both peptides. As for the experimental part:
(§1) Next, we analyzed Ca^2+ flux as a general measure to test for neutrophil activation, as used in previous studies. HL60 cells stably transfected with different FPR receptor genes were used to determine which FPR receptors are differentially activated by PSMα3 versus PSMα3N22Y (Fig. 4A). […] At a peptide concentration of 100 nM, we observed a difference of ∼factor 2 in chemotactic activity comparing the two peptides when FPR1 recognition was inhibited by CHIPS, likely attributable to FPR2-mediated recognition. Owing to the overall ∼10 times lower capacity to stimulate FPR receptors other than FPR2, we observed no chemotaxis at that peptide concentration with addition of the FPR2 blocking agent FLIPr.
(A) Differential activation of FPRs by PSMα3 versus PSMα3N22Y was measured using synthetic peptides and Ca^2+ flux observed in HL60 cells stably transfected with the corresponding FPR genes as readout, using three biological and two technical replicates. The calculated Kd values are shown on the right. […] (B) Ca^2+ flux in human neutrophils upon addition of PSMα3 or PSMα3N22Y and inhibition by FLIPr (FPR2 inhibitor) or CHIPS (FPR1 inhibitor). Neutrophils were from three donors and the measurements were performed in quadruplicate. *, p<0.05; **, p<0.01; ***, p<0.001; ****, p<0.0001 (comparing values obtained with PSMα3 versus corresponding values obtained with PSMα3N22Y). TEXT PRINTED IN THE PICTURE: (A) PSMα3: Kd (nM): FPR1: 615.6 ± 101.2; Kd (nM): FPR2: 11.90 ± 1.90; Kd (nM): FPR3: 1377 ± 285 | (A) PSMα3 N22Y: Kd (nM): FPR1: 3039 ± 682; Kd (nM): FPR2: 10.81 ± 2.38; Kd (nM): FPR3: 953.0 ± 253.9
Synthetic PSM peptides were obtained from commercial vendors at a purity of >95%. They all carry the N-terminal N-formyl methionine as common for PSMs, which are secreted into the medium without a signal peptide. […]
(§2) Human neutrophils were isolated from venous blood of healthy donors as described, [39]. Neutrophil chemotaxis and Ca^2+ flux were determined as previously described, [24]. […] Chemotaxis of neutrophils was determined using a transwell system (Costar) with analysis of neutrophil migration using fluorescence labeling. Calcium fluxes were monitored as a surrogate marker for chemotaxis since it can be measured more robustly and accurately than chemotaxis. For measurement of Ca^2+ fluxes, 5×10^6 neutrophils/ml were labeled with a fluorescent dye and analyzed with a FACScalibur (Becton Dickinson) as described. […] Measurements of 2,000 events were performed and Ca^2+ flux was expressed as relative fluorescence corrected for buffer controls. […] At the desired times, PMN lysis was determined by release of lactate dehydrogenase (LDH) (Cytotoxicity Detection Kit, Roche Applied Sciences).
(In general: Calcium flux is commonly read through the fluorescence of an indicator in the cells.)

In assay [2] the test system is human neutrophils. In words: Human neutrophil chemotaxis / Ca2+ flux with FPR2 inhibited by FLIPr. To be noted: FLIPr 0.5 µg/ml, 20 min pre-incubation at room temperature, three donors, quadruplicate; for Chemotaxis with addition of FPR2 blocking agent FLIPr, 100 nM peptide: peptide 100 nM. As to the method:
as §1
(A) Differential activation of FPRs by PSMα3 versus PSMα3N22Y was measured using synthetic peptides and Ca^2+ flux observed in HL60 cells stably transfected with the corresponding FPR genes as readout, using three biological and two technical replicates. The calculated Kd values are shown on the right. […] (B) Ca^2+ flux in human neutrophils upon addition of PSMα3 or PSMα3N22Y and inhibition by FLIPr (FPR2 inhibitor) or CHIPS (FPR1 inhibitor). […]
as §2

Assay [3] deals with human neutrophils. Kind of assay: PMN lysis (LDH release). To be noted: 37°C, 1 h; for PMN lysis at high concentration: synthetic peptides at 10 µg/ml or higher. As to the method:
Figure 5 PSMα3N22Y has diminished cytolytic activities. (A) PMN lysis of synthetic PSMα3N22Y versus PSMα3. Data are from 2 donors, measured in triplicate each after incubation at 37°C for 1 h. […] (B) Hemolysis of synthetic PSMα3N22Y versus PSMα3. Data are from 2 donors, measured in triplicate, after incubation at 37°C for 1 h. (C, D) PMN lysis and hemolysis, respectively, of culture filtrates from PSMα3N22Y- versus PSMα3-producing strains when expressed on plasmids. pTXΔ16 is the empty control vector. The background strain in all constructs is a PSM-free USA300 strain (LACΔpsmαΔpsmβΔhld). Culture filtrates were diluted 1∶20 for the PMN lysis and 1∶2 for the hemolysis measurements. PMN lysis results are from two and hemolysis data from one donor, with three replicates measured each. (E) PMN lysis of culture filtrates from MRSA252 (252) versus 252*, in which the psmα3 gene (expressing PSMα3N22Y) on the genome was changed to express PSMα3 as present in all non-CC30 strains. […] Culture filtrates were diluted 1∶10. *, p<0.05 (paired t-test). (F) Hemolysis of culture filtrates from the same strains as in (E) at different dilutions. (A–F), *, p<0.05; **, p<0.01; ***, p<0.001; ****, p<0.0001. […]
as §2
(In general: Release of lactate dehydrogenase indicates damage to the cell membrane.)

The mark [4] stands for this setting: Ca2+ flux, transfected HL60 cells.

Each structure is given as a SMILES string.

For orientation: Kd means the equilibrium constant for the complex coming apart. Lower therefore signals tighter binding. As to `CSCC[C@H](NC=O)C(=O)N[C@@H](CCC(=O)O)C(=O)N[C@@H](Cc1ccccc1)C(=O)N[C@H](C(=O)N[C@@H](C)C(=O)N[C@@H](CCCCN)C(=O)N[C@@H](CC(C)C)C(=O)N[C@@H](Cc1ccccc1)C(=O)N[C@@H](CCCCN)C(=O)N[C@@H](Cc1ccccc1)C(=O)N[C@@H](Cc1ccccc1)C(=O)N[C@@H](CCCCN)C(=O)N[C@@H](CC(=O)O)C(=O)N[C@@H](CC(C)C)C(=O)N[C@@H](CC(C)C)C(=O)NCC(=O)N[C@@H](CCCCN)C(=O)N[C@@H](Cc1ccccc1)C(=O)N[C@@H](CC(C)C)C(=O)NCC(=O)N[C@@H](CC(N)=O)C(=O)N[C@@H](Cc1ccc(O)cc1)C(=O)O)C(C)C` [PSMα3N22Y], in assay [1] (setting [4]), the “FPR2-activating potential, PSMα3 versus PSMα3N22Y” value is given as “no difference in the FPR2-activating potential”; the “Activation of FPR2 relative to FPR1 and FPR3” value was “activated FPR2 much stronger than FPR1 and FPR3”. Moreover, the Kd in assay [1] (one site-binding model from Ca2+ flux, synthetic peptides, FPR2-transfected HL60 cells, three biological and two technical replicates, error = standard deviation) worked out at 0.0108 ± 0.00238 µM. The “Chemotaxis with addition of FPR2 blocking agent FLIPr, 100 nM peptide” value in assay [2] was “no chemotaxis”. The “Difference in chemotactic potential between the two peptides with FPR2 blocked, 1 µM peptide” value in assay [2] (peptide 1 µM) is “very strong difference in chemotactic potential”. Besides, in assay [3], the “PMN lysis at high concentration” value is “completely lysed the neutrophils”.

As to `CSCC[C@H](NC=O)C(=O)N[C@@H](CCC(=O)O)C(=O)N[C@@H](Cc1ccccc1)C(=O)N[C@H](C(=O)N[C@@H](C)C(=O)N[C@@H](CCCCN)C(=O)N[C@@H](CC(C)C)C(=O)N[C@@H](Cc1ccccc1)C(=O)N[C@@H](CCCCN)C(=O)N[C@@H](Cc1ccccc1)C(=O)N[C@@H](Cc1ccccc1)C(=O)N[C@@H](CCCCN)C(=O)N[C@@H](CC(=O)O)C(=O)N[C@@H](CC(C)C)C(=O)N[C@@H](CC(C)C)C(=O)NCC(=O)N[C@@H](CCCCN)C(=O)N[C@@H](Cc1ccccc1)C(=O)N[C@@H](CC(C)C)C(=O)NCC(=O)N[C@@H](CC(N)=O)C(=O)N[C@@H](CC(N)=O)C(=O)O)C(C)C` [PSMα3], the “Activation of FPR2 relative to FPR1 and FPR3” value in assay [1] (setting [4]) is “activated FPR2 much stronger than FPR1 and FPR3”. The “Chemotaxis with addition of FPR2 blocking agent FLIPr, 100 nM peptide” value in assay [2] was “no chemotaxis”. For the same compound, in assay [3], the “PMN lysis at high concentration” value is on record as “completely lysed the neutrophils”. Further, the “Cytolytic capacity toward human neutrophils” value in assay [3] (synthetic peptides, LDH release, 2 donors, triplicate, compared to PSMα3N22Y) was “significantly higher cytolytic capacities”.
